{
  "source": "patent US20250009763A1",
  "about": "“METHODS FOR EXTENDING LIFESPAN AND/OR DELAYING AGING” (priority 2023, published 2025)",
  "key": {"aged C57BL/6J mice [1]": {"system": "aged C57BL/6J mice", "test": "Grip strength test", "format": "in vivo, mouse", "conditions": "forelimbs, hindlimbs and all four limbs; mid-term and long-term; versus SD group; FIGS. 4E-4G", "experimental": "The grip strength of the male C57BL/6J mice was measured at 87 weeks (mid-term) and 111 weeks (long-term) of age using an adjustable metallic grid mounted with a force sensor (DTG-5, DigiTech, JP). To conduct the test, the mice were placed on the aforementioned test device and were held gently by the tail, allowing them to grip the grid with forelimbs, hindlimbs, or four limbs (for measuring 2-paw and 4-paw grip strength, respectively). The device automatically measured and recorded the peak force in grams (g). Five trials were performed for each test, and the mean values were used to determine the grip strength of each mouse. Mid-term: SD, n=30; PN6, n=8; long-term: SD, n=23; PN6, n=8."}, "aged C57BL/6J mice [2]": {"system": "aged C57BL/6J mice", "test": "Visible changes in appearance of aged mice", "format": "in vivo, mouse", "conditions": "chow containing 50 mg/kg PN6", "experimental": "All animal procedures were conducted under protocols (Protocol #CGU108-134) that complied with relevant regulations and approved by Research Guidelines for the Care and Use of Laboratory Animals, Chang Guan University. Male C57BL/6J male mice (at 34 weeks of age) obtained from National Laboratory Animal Center (NLAC) were maintained at 23±1° C. and at humidity of 45-70% with a 12 hour dark/light cycle (7:00 am/pm lights on/off). After reaching 50 weeks of age, the mice were randomly divided into two groups: Group I (SD), fed a standard rodent chow (n=27); and Group II (PN6), fed a standard rodent chow containing 50 mg/kg PN6 (n=10). Animals had ad libitum access to food and water throughout the study (the mice were sacrificed at 131 weeks of age), during which their body weight and food intake were measured weekly."}, "aged C57BL/6J mice [3]": {"system": "aged C57BL/6J mice", "test": "Metabolic breath analysis test", "format": "in vivo, mouse", "conditions": "versus SD", "experimental": "The metabolic breath analysis test was carryout out using the OxyletPro System. The male C57BL/6J mice fed a standard rodent chow with or without 50 mg/kg PN6 for 22 weeks (at 72 weeks of age; mid-term) were placed in the metabolic cages of the OxyletPro System for a 24-hour habituation period before actual recordings and remained in the cages for the following 48 hours. The OxyletPro System was equipped with an air supply and switching unit that provided independent flow control to the cage and collected the products produced therein. The gas analyzer was connected in tandem to the OxyletPro System for O2 and CO2 concentration analyses, from which the oxygen consumption (VO2), the carbon dioxide production (VCO2), and the energy expenditure (EE) were automatically calculated. SD, n=12; PN6, n=7."}, "HUVECs": {"system": "HUVECs", "test": "Senescence-associated (SA)-β-gal staining", "format": "cell-based, human", "conditions": "HUVECs at PDL11, versus control without PN6; FIG. 3C", "experimental": "For the population doubling (PD) assay, HUVECs (1×10^5 cells/3.5 cm dish) were propagated in the presence of DMSO (i.e., control) or PN6 (1 or 2 μM) until senescence (Day 41), and the cell numbers in each passage were recorded to generate a growth curve that represented the cumulative population doubling. The population doubling levels (PDLs) of HUVECs were calculated in every culture to indicate the proliferation capacity of HUVECs under the respective conditions. The population doublings (PDs) were estimated using the equation: PDL=3.32 (log (total viable cells at harvest/total viable cells at seeding). Also, HUVECs at passages PDL4 and PDL11 cultured in 0 μM (i.e., DMSO alone), 1 μM, or 2 μM PN6 were harvested for further analyses (e.g., western blot and SA-β-gal staining).\nHUVECs at 90% confluency were collected, washed, and fixed with 2% formaldehyde and 0.2% glutaraldehyde for 5 minutes. The cells were then subjected to staining by incubation with a staining solution (40 mmol/l citric acid, sodium phosphate, pH 6.0, 1 mg/ml 5-bromo-4-chloro-3-isolyl-β-D-galactoside (X-gal, Sigma), 5 mmol/l potassium ferrocyanide, 5 mmol/l potassium ferricyanide, 150 mmol/l NaCl, and 2 mmol/l MgCl2) at 37° C. for 18-24 hours. The results of SA-β-gal-positive cells were observed by microscopy, and were counted for over 300 cells in at least three independent fields."}, "SIR2/SIRT1": {"molecular_target": "T1, SIR2/SIRT1 (Homo sapiens, UniProt Q96EB6)", "T1 construct": "purchased Enzo Life Sciences, Inc", "T1 sequence (Q96EB6 2-747 limits assumed)": "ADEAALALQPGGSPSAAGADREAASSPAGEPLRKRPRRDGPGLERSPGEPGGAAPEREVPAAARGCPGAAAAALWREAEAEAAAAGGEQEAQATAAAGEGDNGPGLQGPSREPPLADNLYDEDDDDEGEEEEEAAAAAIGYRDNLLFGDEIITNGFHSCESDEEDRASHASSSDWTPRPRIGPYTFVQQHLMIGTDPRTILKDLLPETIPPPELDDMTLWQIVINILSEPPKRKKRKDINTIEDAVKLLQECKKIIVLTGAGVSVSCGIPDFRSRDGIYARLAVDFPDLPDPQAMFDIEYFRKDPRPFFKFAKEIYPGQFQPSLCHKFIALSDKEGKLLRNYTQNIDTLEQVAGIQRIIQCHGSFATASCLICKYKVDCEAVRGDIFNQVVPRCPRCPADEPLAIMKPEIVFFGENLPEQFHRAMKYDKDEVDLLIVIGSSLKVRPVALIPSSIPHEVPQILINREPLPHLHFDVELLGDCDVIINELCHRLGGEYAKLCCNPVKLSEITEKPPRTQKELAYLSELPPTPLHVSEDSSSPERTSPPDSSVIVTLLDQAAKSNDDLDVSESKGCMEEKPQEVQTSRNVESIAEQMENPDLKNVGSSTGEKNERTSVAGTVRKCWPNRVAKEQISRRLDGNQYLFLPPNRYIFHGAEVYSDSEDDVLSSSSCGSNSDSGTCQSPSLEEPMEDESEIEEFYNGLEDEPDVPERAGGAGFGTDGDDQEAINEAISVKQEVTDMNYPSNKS", "test": "SIR2/SIRT1 activity assay (SIRT1 fluorometric drug discovery kit)", "format": "biochemical", "conditions": "SIRT1 activity assay kit; FIG. 2K", "experimental": "The activity of SIR2/SIRT1 was assessed using a SIRT1 fluorometric drug discovery kit (Enzo Life Sciences, Inc.), in accordance with the manufacturer's instructions. Fluorescence was excited at 360 nm and emitted at 460 nm."}},
  "data": [
    {"smiles": "CCC(CC[C@@H](C)C1CCC2C3CC(=O)[C@H]4C[C@@H](O)CC[C@]4(C)C3CC[C@@]21C)C(C)C", "note": "(stereo in doubt) [PN6, (24S)-3β-hydroxy-5α-stigmastan-6-one]", "values": [
      {"measurement": "grip strength", "setting": "aged C57BL/6J mice [1]", "result": "increased grip strength"},
      {"measurement": "Hair graying", "setting": "aged C57BL/6J mice [2]", "result": 25, "unit": "%"},
      {"measurement": "Kyphosis", "setting": "aged C57BL/6J mice [2]", "result": 13, "unit": "%"},
      {"measurement": "Muscle weakness", "setting": "aged C57BL/6J mice [2]", "result": 13, "unit": "%"},
      {"measurement": "rate of O2 consumption", "setting": "aged C57BL/6J mice [3]; FIG. 4L", "result": "significantly higher"},
      {"measurement": "rate of CO2 elimination", "setting": "aged C57BL/6J mice [3]; FIG. 4M", "result": "significantly higher"},
      {"measurement": "respiratory quotient", "setting": "aged C57BL/6J mice [3]; FIG. 4N", "result": "higher"},
      {"measurement": "energy expenditure", "setting": "aged C57BL/6J mice [3]; FIG. 4O", "result": "higher"},
      {"measurement": "number of SA-β-gal-positive senescent cells", "setting": "HUVECs", "result": "decrease in the number"},
      {"measurement": "SIRT1 activity", "setting": "SIR2/SIRT1", "result": "directly increase the SIRT1 activity"}
    ]}
  ]
}
